Some test systems named below: RXF 393; MOLT-4; NCI-H226; M14; CAKI-1; DU-145; K562; OVCAR-4; A498; MDA-MB-435; Malme-3M; TK-10; SR; RPMI-8226; SF-295; HCT-116; Hs-578T; EKVX; LOX IMVI; SN12C.
Holding throughout (assay): NCI-60 cell line screen, 48 h

Molecules are shown by their SMILES.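 Briefly, cells in 96-well plates were exposed to five compound concentrations for 48 h, and endpoints were estimated by linear interpolation. Here, GI50 denotes the concentration required for 50% inhibition of growth.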 The source made the active and inactive calls. No stated cut-off is given here; in the data, active = GI50 up to about 1.1 µM and inactive = higher.

Regarding `CCOC(=O)N1CCN(C(=O)Nc2cccc3ccccc23)CC1`, the GI50 in the test on RXF 393, in the test with MOLT-4, in the test with NCI-H226, in the test with M14, in the test with CAKI-1 and with DU-145 was > 10 µM (inactive) in each case. In addition, the GI50 with K562, with OVCAR-4, in the test with A498, in the test with MDA-MB-435, in the test with Malme-3M and with TK-10 was > 10 µM (inactive) in each case. Also, the GI50 in the test with SR, with RPMI-8226, in the test on SF-295, with HCT-116, in the test on Hs-578T and with EKVX was > 10 µM (inactive) each time. Further, the GI50 with LOX IMVI and in the test with SN12C was > 10 µM (inactive) throughout.

Consider `OCC(CO)CC1COc2ccccc2O1` (configuration not stated), for which the GI50 in the test on RXF 393, in the test on MOLT-4, in the test with NCI-H226, with M14, in the test with CAKI-1 and in the test on DU-145 was > 10 µM (inactive) throughout. Besides, the GI50 in the test on K562, in the test with OVCAR-4, in the test on A498, with MDA-MB-435, in the test on Malme-3M and with TK-10 was > 10 µM (inactive) throughout. Besides, the GI50 in the test on SR, in the test on RPMI-8226, with SF-295, in the test with HCT-116, in the test with Hs-578T and with EKVX was > 10 µM (inactive) in each case. Further, the GI50 in the test with LOX IMVI and with SN12C was > 10 µM (inactive) each time.

In the case of `COC(=O)NCCc1n[nH]c2c1C(=O)C=C(N1CCOCC1)C2=O`, the GI50 with RXF 393, in the test on MOLT-4, with NCI-H226, in the test with M14, with CAKI-1 and with DU-145 was > 100 µM (inactive) each time. The GI50 with K562, with OVCAR-4, in the test on A498, in the test with MDA-MB-435, with Malme-3M and in the test on TK-10 was > 100 µM (inactive) throughout. The GI50 in the test on SR, in the test with RPMI-8226, with SF-295, in the test on HCT-116, in the test with Hs-578T and with EKVX was > 100 µM (inactive) each time. For the same molecule, the GI50 with LOX IMVI and in the test with SN12C was > 100 µM (inactive) throughout.

Take `COc1ccc(C(O)(c2ccccc2)c2nccc3ccccc23)cc1` (configuration not stated): the GI50 was 3.19 µM (inactive) in the test with RXF 393; 2.29 µM (inactive) in the test with MOLT-4; 2.76 µM (inactive) with M14; 8 µM (inactive) in the test on CAKI-1; 6.22 µM (inactive) in the test on DU-145; 2.7 µM (inactive) with K562. For the same molecule, the GI50 with OVCAR-4 is 11 µM (inactive); in the test with MDA-MB-435 it was 3.6 µM (inactive); in the test with Malme-3M it was 0.0966 µM (active); with TK-10, 27.8 µM (inactive); in the test on SR, 7.74 µM (inactive); in the test with RPMI-8226, 7.36 µM (inactive). Also, the GI50 with SF-295 was 6.76 µM (inactive); in the test with HCT-116 it was 4.76 µM (inactive); in the test with Hs-578T, 4.71 µM (inactive); in the test with EKVX, 11.9 µM (inactive); with LOX IMVI, 5.18 µM (inactive); in the test on SN12C, 22.1 µM (inactive).

Consider `CCOC(=O)C1(C(=O)OCC)CSC1`, for which the GI50 with RXF 393, with MOLT-4, with NCI-H226, with M14, with DU-145 and with K562 was > 100 µM (inactive) in each case. The GI50 in the test with OVCAR-4 is > 100 µM (inactive); with A498, 42 µM (inactive); with MDA-MB-435 it was > 100 µM (inactive); with TK-10 it was > 100 µM (inactive); in the test with SR it was > 100 µM (inactive); in the test with SF-295 it was > 100 µM (inactive). The GI50 in the test on HCT-116, in the test on Hs-578T, in the test with LOX IMVI and in the test with SN12C was > 100 µM (inactive) throughout.

For `CC(=O)OC/C=C\Cn1nc(Br)c(=O)[nH]c1=O`, the GI50 is 10.6 µM (inactive) in the test with RXF 393; 12.9 µM (inactive) in the test with NCI-H226; 14.9 µM (inactive) with M14; 10.7 µM (inactive) in the test on CAKI-1; 15.7 µM (inactive) with DU-145; 9.33 µM (inactive) in the test on K562. For the same molecule, the GI50 in the test on A498 was 19.9 µM (inactive); with MDA-MB-435, 14.6 µM (inactive); with Malme-3M it was 14.3 µM (inactive); in the test with TK-10 it was 19.1 µM (inactive); with SR, 4.06 µM (inactive); in the test on RPMI-8226 it was 25.9 µM (inactive). For the same molecule, the GI50 in the test on Hs-578T is 21.5 µM (inactive); with EKVX, 17.4 µM (inactive); in the test with LOX IMVI it was 6.75 µM (inactive); in the test with SN12C, 23.2 µM (inactive).

In the case of `O=C1c2ccccc2C(=O)N1CC(CN1C(=O)c2ccccc2C1=O)(C(=O)OCc1ccccc1)C(=O)OCc1ccccc1`, the GI50 is 14.4 µM (inactive) with RXF 393; 7.36 µM (inactive) in the test with MOLT-4; > 100 µM (inactive) in the test on NCI-H226; > 100 µM (inactive) with M14; > 100 µM (inactive) in the test on CAKI-1; > 100 µM (inactive) in the test on DU-145. The GI50 in the test with A498, in the test with MDA-MB-435, with Malme-3M, in the test on SR, in the test with RPMI-8226 and in the test on SF-295 was > 100 µM (inactive) each time. The GI50 with HCT-116, with Hs-578T and in the test on SN12C was > 100 µM (inactive) in each case.

In the case of `CC1(C)CCCCCC(C)(CCCO)C1=O` (configuration not stated), the GI50 in the test with RXF 393, in the test on MOLT-4, in the test with NCI-H226, in the test on M14, in the test with CAKI-1 and in the test on DU-145 was > 100 µM (inactive) each time. Further, the GI50 in the test on K562, in the test on OVCAR-4, in the test with A498, with MDA-MB-435, with Malme-3M and with SR was > 100 µM (inactive) each time. Moreover, the GI50 with RPMI-8226, with SF-295, in the test with HCT-116, in the test on Hs-578T, in the test with EKVX and in the test on LOX IMVI was > 100 µM (inactive) in each case. Also, in the test on SN12C, the GI50 was > 100 µM (inactive).

For `NC(=O)Nc1ccc(C(=O)NCCCNC(=O)c2ccc(NC(N)=O)cc2)cc1`, the GI50 in the test on RXF 393, in the test on MOLT-4, in the test on NCI-H226, with M14, in the test on CAKI-1 and in the test on DU-145 was > 100 µM (inactive) each time. Also, the GI50 in the test on K562, with OVCAR-4, with A498, in the test with MDA-MB-435, in the test on Malme-3M and with TK-10 was > 100 µM (inactive) throughout. The GI50 with SR, with RPMI-8226, with HCT-116, with Hs-578T, in the test with EKVX and in the test on LOX IMVI was > 100 µM (inactive) throughout.

For the molecule `COc1ccc2[nH]c3c(C)c4ccnc(NCCCN(C)CCCNc5ccc6nnn7c8ccccc8c(=O)c5c67)c4c(C)c3c2c1`, the GI50 was 1.03 µM (active) with RXF 393; 0.00104 µM (active) in the test with MOLT-4; > 10 µM (inactive) with NCI-H226; 0.938 µM (active) in the test with M14; 1.03 µM (active) with CAKI-1; 0.226 µM (active) in the test with K562. The GI50 in the test on OVCAR-4 was 1.02 µM (active); in the test with A498, 1.35 µM (inactive); in the test with MDA-MB-435 it was 0.362 µM (active); in the test on TK-10 it was 1.07 µM (active); in the test on SR it was 0.335 µM (active); in the test with RPMI-8226 it was 0.0474 µM (active). Besides, the GI50 with SF-295 was 0.14 µM (active); with HCT-116 it was 0.0217 µM (active); with Hs-578T it was 1.38 µM (inactive); in the test with EKVX, 1.01 µM (active); in the test on LOX IMVI, 0.228 µM (active); in the test on SN12C it was 0.242 µM (active).

As for `O=C1C=C(N2CC2)C(=O)C=C1N1CC1`, the GI50 in the test with RXF 393 is 0.0634 µM (active); with MOLT-4, 0.0344 µM (active); in the test with NCI-H226, 0.418 µM (active); in the test on M14, 0.091 µM (active); in the test with CAKI-1, < 0.0148 µM (active); with DU-145 it was 0.339 µM (active). For the same molecule, the GI50 was 0.216 µM (active) in the test on OVCAR-4; 0.0318 µM (active) with A498; 1.23 µM (inactive) in the test with MDA-MB-435; 0.107 µM (active) in the test on Malme-3M; 0.136 µM (active) in the test on TK-10; 0.0258 µM (active) with SR. For the same molecule, the GI50 in the test on RPMI-8226 is 0.227 µM (active); in the test with SF-295, 0.155 µM (active); in the test with Hs-578T it was 2.39 µM (inactive); in the test with LOX IMVI, 0.0849 µM (active); in the test with SN12C, 0.122 µM (active).

These data come from ChEMBL document CHEMBL1201862, “PubChem BioAssay data set” (2004).
